# Experimental data as given in patent US8940310B2, “Methods of treatment using TLR7 and/or TLR9 inhibitors” (Dynavax Technologies Corporation, priority 2010, dated 2015).
# Marks after values point to notes of the source that are not given here. [I] = hypoxanthine (inosine)
# Assays:
# [1] = High dosages of IRPs in mice (weight, histology); type: in vivo, BALB/c mice; conditions: for Liver: Liver changes, number of animals / Liver: Mixed cell infiltration, number of animals / Liver: No significan changes, number of animals / Right Kidney: No significant changes, number of animals / Right Kidney: Tubular basophilia, number of animals / Right Kidney: Tubular changes, number of animals: 6 animals; for Heart: No significant changes, number of animals: tissue missing in two animals
# Method in brief: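 BALB/c mice (n=5 per group) received IRPs or saline subcutaneously at 4, 20, 50 or 100 mg/kg on days 1, 4, 7 and 10. Body weight tracked over the study; at termination organ weights, tissue oligonucleotide levels and liver, kidney and heart histology were assessed.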
# [2] = Monomer and tetramer formation of IRPs, size-exclusion HPLC; type: physicochemical; conditions: 100 mg/mL in PBS and 0.5M KCl, room temperature, five weeks
# Procedure: Solutions were prepared of the by mixing 100 mg/mL of the IRP sequences in PBS and 0.5M KCl and storing at room temperature for three to five weeks. The solutions were subsequently analyzed by size-exclusion HPLC.
# [3] = test system: human B-cells; experiment: Human B-cells cultured in the presence of IRPs, IL-6
# [4] = High dosages of IRPs in rats (weight, deaths, histology); type: in vivo, Sprague Dawley rats; conditions: for Heart: Cell Vacuolation, number of animals / Heart: Hemorrhage, number of animals / Heart: Mononuclear Cell Infiltration, number of animals / Heart: Necrosis, number of animals / Heart: No significant changes, number of animals / Liver: Liver changes, number of animals / Liver: Mixed cell infiltration, number of animals / Liver: Necrosis, number of animals / Liver: No significant changes, number of animals / Liver: Vacuolation, number of animals / Right Kidney: Hydronephrosis, number of animals / Right Kidney: Mineralization, number of animals / Right Kidney: Necrosis, number of animals / Right Kidney: No significant changes, number of animals / Right Kidney: Tubular basophilia, number of animals / Right Kidney: Tubular changes, number of animals: 6 animals
# [5] = 50 mg/kg, 0 = no change to 4 = severe
# [6] = 100 mg/kg, 0 = no change to 4 = severe
# [7] = rat, 10 mg/kg, 0 = no change to 4 = severe
# [8] = rat, 90 mg/kg, 0 = no change to 4 = severe
substance,measurement,setting,value
"5′-TGC TCC TGG AGI GGT TGT-3′ (DNA TGCTCCTGGAGNGGTTGT; DNA, [I] at 12, backbone and methylation of C not given here) [SEQ ID NO:73]","Heart: Chronic inflammation, number of animals",[1]; 50 mg/kg,0
same,"Heart: Mineralization, number of animals",[1]; 50 mg/kg,2
same,"Heart: Mineralization, mean severity score",[1]; [5],3.0
same,"Liver: Liver changes, mean severity score",[1]; [5],1.0
same,"Liver: Mixed cell infiltration, mean severity score",[1]; [5],1.0
same,"Liver: Liver changes, number of animals",[1]; 50 mg/kg,1
same,"Liver: Mixed cell infiltration, number of animals",[1]; 50 mg/kg,2
same,"Liver: No significan changes, number of animals",[1]; 50 mg/kg,3
same,"Right Kidney: No significant changes, number of animals",[1]; 50 mg/kg,6
same,"Right Kidney: Tubular basophilia, number of animals",[1]; 50 mg/kg,0
same,"Right Kidney: Tubular changes, number of animals",[1]; 50 mg/kg,0
same,"Heart: No significant changes, number of animals",[1]; 50 mg/kg,2**
same,"Heart: Chronic inflammation, number of animals",[1]; 100 mg/kg,1
same,"Heart: Mineralization, number of animals",[1]; 100 mg/kg,1
same,"Heart: Chronic inflammation, mean severity score",[1]; [6],2.0
same,"Heart: Mineralization, mean severity score",[1]; [6],3.0
same,"Liver: Liver changes, mean severity score",[1]; [6],1.0
same,"Liver: Mixed cell infiltration, mean severity score",[1]; [6],1.0
same,"Right Kidney: Tubular changes, mean severity score",[1]; [6],1.0
same,"Liver: Liver changes, number of animals",[1]; 100 mg/kg,5
same,"Liver: Mixed cell infiltration, number of animals",[1]; 100 mg/kg,1
same,"Liver: No significan changes, number of animals",[1]; 100 mg/kg,1
same,"Right Kidney: No significant changes, number of animals",[1]; 100 mg/kg,0
same,"Right Kidney: Tubular basophilia, number of animals",[1]; 100 mg/kg,0
same,"Right Kidney: Tubular changes, number of animals",[1]; 100 mg/kg,6
same,"Heart: No significant changes, number of animals",[1]; 100 mg/kg,2**
same,fraction in monomer form,[2],100%
same,Normalized IL-6 Response (Percentage of Positive Control),"[3]; Experiment # 1, Max Conc 4.0 uM",11%
same,Normalized IL-6 Response (Percentage of Positive Control),"[3]; Experiment # 2, Max Conc 4.0 uM",13%
same,Normalized IL-6 Response (Percentage of Positive Control),"[3]; Experiment # 3, Max Conc 4.0 uM",6%
same,Normalized IL-6 Response (Percentage of Positive Control),"[3]; Experiment # 9, Max Conc 2.0 uM",11%
same,B-cell stimulatory activity,"[3]; FIG. 1C, percent IL-6 from CpG-ISS",low B-cell stimulatory activity
same,toxicity profile,[4]; rat histology,favorable toxicity profiles
same,"Heart: Cell Vacuolation, number of animals","[4]; rat, 10 mg/kg",0
same,"Heart: Hemorrhage, number of animals","[4]; rat, 10 mg/kg",0
same,"Heart: Mononuclear Cell Infiltration, number of animals","[4]; rat, 10 mg/kg",0
same,"Heart: Necrosis, number of animals","[4]; rat, 10 mg/kg",0
same,"Heart: No significant changes, number of animals","[4]; rat, 10 mg/kg",6
same,"Liver: Liver changes, number of animals","[4]; rat, 10 mg/kg",0
same,"Liver: Mixed cell infiltration, number of animals","[4]; rat, 10 mg/kg",6
same,"Liver: Necrosis, number of animals","[4]; rat, 10 mg/kg",0
same,"Liver: No significant changes, number of animals","[4]; rat, 10 mg/kg",0
same,"Liver: Vacuolation, number of animals","[4]; rat, 10 mg/kg",0
same,"Right Kidney: Hydronephrosis, number of animals","[4]; rat, 10 mg/kg",1
same,"Right Kidney: Mineralization, number of animals","[4]; rat, 10 mg/kg",1
same,"Right Kidney: Necrosis, number of animals","[4]; rat, 10 mg/kg",0
same,"Right Kidney: No significant changes, number of animals","[4]; rat, 10 mg/kg",0
same,"Right Kidney: Tubular basophilia, number of animals","[4]; rat, 10 mg/kg",0
same,"Right Kidney: Tubular changes, number of animals","[4]; rat, 10 mg/kg",6
same,"Liver: Mixed cell infiltration, mean severity score",[4]; [7],1.8
same,"Right Kidney: Hydronephrosis, mean severity score",[4]; [7],2.0
same,"Right Kidney: Mineralization, mean severity score",[4]; [7],1.0
same,"Right Kidney: Tubular changes, mean severity score",[4]; [7],1.3
same,"Heart: Cell Vacuolation, number of animals","[4]; rat, 90 mg/kg",0
same,"Heart: Hemorrhage, number of animals","[4]; rat, 90 mg/kg",0
same,"Heart: Mononuclear Cell Infiltration, number of animals","[4]; rat, 90 mg/kg",0
same,"Heart: Necrosis, number of animals","[4]; rat, 90 mg/kg",0
same,"Heart: No significant changes, number of animals","[4]; rat, 90 mg/kg",6
same,"Liver: Liver changes, number of animals","[4]; rat, 90 mg/kg",6
same,"Liver: Mixed cell infiltration, number of animals","[4]; rat, 90 mg/kg",2
same,"Liver: Necrosis, number of animals","[4]; rat, 90 mg/kg",0
same,"Liver: No significant changes, number of animals","[4]; rat, 90 mg/kg",0
same,"Liver: Vacuolation, number of animals","[4]; rat, 90 mg/kg",0
same,"Right Kidney: Hydronephrosis, number of animals","[4]; rat, 90 mg/kg",0
same,"Right Kidney: Mineralization, number of animals","[4]; rat, 90 mg/kg",2
same,"Right Kidney: Necrosis, number of animals","[4]; rat, 90 mg/kg",0
same,"Right Kidney: No significant changes, number of animals","[4]; rat, 90 mg/kg",0
same,"Right Kidney: Tubular basophilia, number of animals","[4]; rat, 90 mg/kg",0
same,"Right Kidney: Tubular changes, number of animals","[4]; rat, 90 mg/kg",6
same,"Liver: Liver changes, mean severity score",[4]; [8],1.9
same,"Liver: Mixed cell infiltration, mean severity score",[4]; [8],2.0
same,"Right Kidney: Mineralization, mean severity score",[4]; [8],1.5
same,"Right Kidney: Tubular changes, mean severity score",[4]; [8],2.0
